The record followed here is US20180312493A1, “Antibiotic Compounds, Pharmaceutical Formulations Thereof And Methods And Uses Therefor” (Simon Fraser University, priority 2015, published 2018).

In experiment [1] the test system is A. baumannii (ATCC 19606). In words: In vitro susceptibility, broth microdilution (MIC). It counts as cell-based. The conditions noted are these: Acinetobacter baumannii, ATCC19606; A. baumannii ATCC 19606 (values without asterisk); read-out: Antimicrobial activity (MIC) A. baumannii. In outline: (§1)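 MIC determined by CLSI 2-fold broth microdilution in cation-adjusted Mueller–Hinton broth at ~2.5×10^5 CFU/ml, final compound 0.031–64 μg/ml, 18–24 h at 37 °C. MIC is the lowest concentration giving complete growth inhibition by background-corrected OD600 versus compound-free wells; duplicate or triplicate wells, replicated at least twice.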
A general note: Broth dilution looks for growth in wells or tubes with falling amounts of substance.

The next experiment relates to S. aureus (ATCC29213). Kind of experiment: In vitro susceptibility, broth microdilution (MIC). It counts as cell-based. The conditions noted are these: Staphylococcus aureus; S. aureus ATCC29213; 18-24 h, 37 C; read-out: Antimicrobial activity (MIC) S. aureus ATCC29213. The method, boiled down: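 CLSI 2-fold serial broth microdilution; K. pneumoniae C238 grown in L-broth, S. aureus ATCC 29213 in Mueller Hinton broth, plates incubated 18–24 h at 37 °C. MIC taken as lowest concentration giving complete growth inhibition by OD600 versus compound-free wells, background-subtracted.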

The next experiment deals with MRSA (ATCC BAA-1762). In words: In vitro susceptibility, broth microdilution (MIC). It counts as cell-based, methicillin resistant S. aureus. As to conditions: Staphylococcus aureus; MRSA ATCC BAA-1762; read-out: Antimicrobial activity (MIC) MRSA ATCC BAA1762. In outline: as §1
Another experiment has as its system S. aureus ATCC 29123. In words: Thigh infection model in neutropenic mice. It counts as in vivo, female CD-1 mice. As to conditions: thigh muscle, 10 mg/kg IV BID (2 and 8 h post-infection), 24 hr post infection. The procedure: The antimicrobial activity of compounds 23 and 60 against S. aureus ATCC 29123 was tested in vivo using a thigh infection model in neutropenic mice. Briefly, animals (female CD-1 mice, 5 weeks of age) were made neutropenic prior to S. aureus thigh infection by pre-treating with cyclophosphamide (150 mg/kg, IP, −4 and −1 days pre-inoculation). On the inoculation day (day 0), mice were infected with S. aureus at time zero (t=0). Animals were individually monitored for adverse reactions for 30 min post-infection.
Compounds 23 and 60 were prepared for IV administration and for oral administration. Vancomycin was administered as a solution in PBS. The test compounds were administered at 2 and 8 hours post-infection and animals were individually monitored for adverse reactions for 30 min after each injection. All animals were then monitored hourly from 20 hours post infection to the endpoint (t=24 hr post infection). At the indicated timepoint, animals were sacrificed and the injected thigh collected.
Quantitative enumeration of bacterial load was determined by plating serial dilutions from homogenized thigh muscles. The plates were incubated and colony counts were determined. CFU per mL calculated was calculated.

In brackets after ≈: the same amount, converted by molar mass.

As for `C[N+](C)(C)CCON=C(c1c(-c2cc3cc(Cl)ccc3[nH]2)[nH]c2cc(Br)ccc12)C(F)(F)F` (racemic) [Compound 221, 2-(((1-(6-Bromo-5′-chloro-1H,1′H-[2,2′-biindol]-3-yl)-2,2,2-trifluoroethylidene)amino)oxy)-N,N,N-trimethylethan-1-aminium Iodide], the values for the MIC (in experiment [1]; in the experiment on S. aureus (ATCC29213); in the experiment with MRSA (ATCC BAA-1762)) were 32 µg/mL, 1 µg/mL and 2 µg/mL, respectively.

For `CN(C)CCOC(=O)c1c(/C=C/c2ccc(Cl)cc2)[nH]c2cc(Br)ccc12` [Compound 60, (E)-2-(Dimethylamino)ethyl 6-bromo-2-(4-chlorostyryl)-1H-indole-3-carboxylate], the MIC (usually the smallest concentration in the dilution series that meets the test's criterion for growth inhibition) in experiment [1] was greater than 64 µg/mL; with S. aureus (ATCC29213) it was 4 µg/mL (≈ 8.93 µM). The “reduction in CFU” value with S. aureus ATCC 29123 was 3 log.

Consider `NCCOc1cc2[nH]c(-c3cc4ccc(Br)cc4[nH]3)cc2cc1Cl` [Compound 201, 2-((6′-Bromo-5-chloro-1H,1′H-[2,2′-biindol]-6-yl)oxy)ethan-1-amine], for which the results for the minimal inhibitory concentration (MIC) (in experiment [1]; in the experiment with S. aureus (ATCC29213); in the experiment with MRSA (ATCC BAA-1762)) were 16 µg/mL (≈ 39.5 µM), 4 µg/mL (≈ 9.88 µM) and 4 µg/mL (≈ 9.88 µM), respectively.

Take `NCCNC(=O)c1c(-c2cc3cc(Cl)ccc3[nH]2)[nH]c2cc(Br)ccc12` [Compound 206, N-(2-Aminoethyl)-6-bromo-5′-chloro-1H,1′H-[2,2′-biindole]-3-carboxamide]: the minimal inhibitory concentration (MIC) in experiment [1] was found to be 16 µg/mL (≈ 37.1 µM); with S. aureus (ATCC29213), 8 µg/mL (≈ 18.5 µM); in the experiment on MRSA (ATCC BAA-1762), 8 µg/mL (≈ 18.5 µM).
